The values below come from patent publication US7115642B2, “Substituted diphenyl isoxazoles, pyrazoles and oxadiazoles useful for treating HCV infection” (priority 2003, dated 2006).

Where two headings read alike, the source gives them in different places.

The subject of this assay is HCV replicon (5-2 Luc replicon-comprising cells). The assay can be described thus: HCV replicon assay (luciferase). In kind it is cell-based, Hepatitis C virus. The conditions noted are these: 5-2 Luc replicon cells, luciferase readout, read-out: Replicon IC50. From the text: In one embodiment, the inhibitory activity of the compounds can be confirmed in a replicon assay that assesses the ability of a test compound to block or inhibit HCV replication in replicon cells. One example of a suitable replicon assay is the liver cell-line Huh 7-based replicon assay described in Lohmann et al., 1999, Science 285:110–113. A specific example of this replicon assay which utilizes luciferase translation is provided in the Examples Section. In one embodiment of this assay, the amount of test compound that yields a 50% reduction in translation as compared to a control cell (IC50) may be determined.
The inhibitory activity of certain exemplary compounds of the invention was confirmed using an HCV replicon assay. The HCV replicon can include such features as the HCV 5′ untranslated region including the HCV IRES, the HCV 3′ untranslated region, selected HCV genes encoding HCV polypeptides, selectable markers, and a reporter gene such as luciferase, GFP, etc. In the assay, actively dividing 5-2 Luc replicon-comprising cells (obtained from Ralf Bartenschlager; see Lohmann et al., 1999, Science 285:110–113) were seeded at a density of between about 5,000 and 7,500 cells/well onto 96 well plates (about 90 μl of cells per well) and incubated at 37° C. and 5% CO2 for 24 hours. Then, the test compound (in a volume of about 10 μl) was added to the wells at various concentrations and the cells were incubated for an additional 24 hours before luciferase assay. Briefly, the Bright-Glo reagent was diluted 1:1 with PBS and 100 μl of diluted reagent was added to each well. After 5 min of incubation at room temperature, luciferin emission was quantified with a luminometer. In this assay, the amount of test compound that yielded a 50% reduction in luciferase activity (IC50) was determined.
In TABLE 1, a value of “+” indicates an IC50 of 10 μM or less in the specified assay; a value of “−” indicates an IC50 of greater than 10 μM in the specified assay.
On the technique in general: Replicon systems follow genome replication, usually without infectious particles.

For orientation: IC50 means the midpoint of a concentration-inhibition curve. With `O=C(Nc1cccc(-c2cc(-c3c(Cl)cc(Cl)cc3OCCN3CCOCC3)no2)c1)C(Cl)Cl` [Compound 143, 2,2-Dichloro-N-[3-[3-[2,4-dichloro-6-(N-morpholino-2-ethyleneoxy)phenyl]-5-isoxazolyl]-phenyl]Acetamide], the concentration for half-maximal inhibition (IC50) is > 10 µM.

`COC(=O)C1CC(Oc2cccc(Cl)c2-c2cc(-c3cccc(NC(=O)C(Cl)Cl)c3)on2)CN1` (centres unmarked) [Compound 591]: the IC50 is < 10 µM.

For `O=C(Nc1cccc(-c2cc(-c3c(Cl)cccc3N3CCN(C(=O)C4CCC4)CC3)no2)c1)C(Cl)Cl` [Compound 641], the 50% inhibitory concentration (IC50) is < 10 µM.

On to `CN(C)C(=O)Oc1cccc(Cl)c1-c1cc(-c2cccc(NC(=O)C(Cl)Cl)c2)on1` [Compound 601], for which the IC50 is < 10 µM.

As to `O=C(Nc1cccc(-c2cc(-c3c(Cl)cccc3N3CCN(C(=O)c4ccc(C(F)(F)F)cc4)CC3)no2)c1)C(Cl)Cl` [Compound 661], the half-maximal inhibitory concentration (IC50) was < 10 µM.

Take `O=C(Nc1cccc(-c2cc(-c3c(Cl)cccc3N3CCN(C(=O)c4ccc(-c5ccccc5)cc4)CC3)no2)c1)C(Cl)Cl` [Compound 557]: the IC50 was > 10 µM.

`O=C(Nc1cccc(-c2cc(-c3c(Cl)cccc3N3CCN(C(=O)c4ccno4)CC3)no2)c1)C(Cl)Cl` [Compound 530]: the IC50 was < 10 µM.

Take `CCCCNC(=O)Nc1cccc(Cl)c1-c1cc(-c2cccc(NC(=O)C(Cl)Cl)c2)on1` [Compound 669]: the 50% inhibitory concentration (IC50) was < 10 µM.

As to `O=C(Nc1cccc(-c2cc(-c3c(Cl)cccc3N3CCN(C(=O)Nc4ccccc4)CC3)no2)c1)C(Cl)Cl` [Compound 534], the IC50 is < 10 µM.

Regarding `O=C(Nc1cccc(-c2cc(-c3c(Cl)cccc3N3CCN(c4cnccn4)CC3)no2)c1)C(Cl)Cl` [Compound 515], the IC50 is < 10 µM.

With `O=C(Nc1ccc(S(=O)(=O)NN2CCOCC2)c(-c2cc(-c3c(Cl)cccc3Cl)no2)c1)C(Cl)Cl` [Compound 107, 2,2-Dichloro-N-[3-[3-(2,6-dichlorophenyl)-5-isoxazolyl]4-(N-morpholinosulfamoyl)-phenyl]Acetamide], under “Hepatitis C virus”, the IC50 is < 10 µM.

In the case of `O=C(Nc1cccc(-c2cc(-c3c(Cl)cccc3N3CCN(C(=O)c4cccs4)CC3)no2)c1)C(Cl)Cl` [Compound 554], the IC50 was < 10 µM.

As for `CCC(=O)N1CCN(c2cccc(Cl)c2-c2cc(-c3cccc(NC(=O)C(Cl)Cl)c3)on2)CC1` [Compound 648], the 50% inhibitory concentration (IC50) was < 10 µM.

With `CS(=O)(=O)c1cccc(F)c1-c1cc(-c2cccc(NC(=O)C(Cl)Cl)c2)on1` [Compound 153, 2,2-Dichloro-N-[3-[3-(2-fluoro-6-methylsulfonyl)phenyl-5-isoxazolyl]phenyl]Acetamide], the 50% inhibitory concentration (IC50) was > 10 µM.

As to `O=C(Nc1cccc(-c2cc(-c3c(Cl)cccc3N3CCC(O)CC3)no2)c1)C(Cl)Cl` [Compound 528], the IC50 is < 10 µM.

As for `O=C(Nc1cccc(-c2cc(-c3c(Cl)cc(OCCN4CCCCC4)cc3Cl)no2)c1)C(Cl)Cl` [Compound 125, 2,2-Dichloro-N-[3-[3-[2,6-dichloro-4-(N-piperidinylethylenoxy)phenyl]-5-isoxazolyl]-phenyl]Acetamide], the IC50 is < 10 µM.

For `O=C(Nc1cccc(-c2cc(-c3c(Cl)cccc3N3CCN(Cc4ccc(Cl)cc4)CC3)no2)c1)C(Cl)Cl` [Compound 654], the IC50 is < 10 µM.

`O=C(Nc1cccc(-c2cc(-c3c(Cl)cccc3N3CCC(C(=O)N4CCOCC4)CC3)no2)c1)C(Cl)Cl` [Compound 668]: the concentration for half-maximal inhibition (IC50) was > 10 µM.

As for `CC(=O)N1CCC(COc2cccc(Cl)c2-c2cc(-c3cccc(NC(=O)C(Cl)Cl)c3)on2)CC1` [Compound 634], the half-maximal inhibitory concentration (IC50) is < 10 µM.

As to `CC(C)(C)OC(=O)NC(Cc1ccccc1)C(=O)N1CCN(c2cccc(Cl)c2-c2cc(-c3cccc(NC(=O)C(Cl)Cl)c3)on2)CC1` (centres unmarked) [Compound 532], the IC50 was < 10 µM.

Consider `COC(=O)C1CC(Oc2cccc(Cl)c2-c2cc(-c3cccc(NC(=O)C(Cl)Cl)c3)on2)CN1C(=O)OC(C)(C)C` (centres unmarked) [Compound 590], for which the IC50 was < 10 µM.

Regarding `O=C(Nc1cccc(-c2cc(-c3c(Cl)cccc3N3CCOCC3)no2)c1)C(Cl)Cl` [Compound 500], the IC50 was < 10 µM.

As for `O=C(Nc1cccc(-c2cc(-c3c(Cl)cccc3OP(=O)(O)O)no2)c1)C(Cl)Cl` [Compound 603], the IC50 was < 10 µM.

In the case of `CC(=O)N1CCC(Oc2cccc(Cl)c2-c2cc(-c3cccc(NC(=O)C(Cl)Cl)c3)on2)CC1` [Compound 577], the concentration for half-maximal inhibition (IC50) was < 10 µM.

As for `O=C(Nc1cccc(-c2cc(-c3c(Cl)cccc3N3CCN(CCN4CCCC4)CC3)no2)c1)C(Cl)Cl` [Compound 652], the half-inhibitory concentration (IC50) is < 10 µM.

For the molecule `CN1CCN(c2ccccc2-c2cc(-c3cccc(NC(=O)C(Cl)Cl)c3)on2)CC1` [Compound 611], the IC50 was < 10 µM.

Consider `CN1CCN(c2cccc(Cl)c2-c2cc(-c3cccc(NC(=O)C(Cl)Cl)c3)on2)CC1` [Compound 99, 2,2-Dichloro-N-[3-[3-[2-chloro-6-(4-methylpiperazino)phenyl]-5-isoxazolyl]phenyl]Acetamide], for which the IC50 (Hepatitis C virus) is < 10 µM.

For `O=C(Nc1cccc(-c2cc(-c3c(Cl)cccc3-n3ccnc3)no2)c1)C(Cl)Cl` [Compound 117, 2,2-Dichloro-N-[3-[3-[2-chloro-6-(N-imidazolyl)phenyl]-5-isoxazolyl]phenyl]Acetamide], the IC50 (Hepatitis C virus) was < 10 µM.

In the case of `N#CC1(c2ccccc2)CCN(c2cccc(Cl)c2-c2cc(-c3cccc(NC(=O)C(Cl)Cl)c3)on2)CC1` [Compound 618], the concentration for half-maximal inhibition (IC50) was < 10 µM.

`O=C(Nc1cccc(-c2cc(-c3c(Cl)cccc3N3CCC(NS(=O)(=O)c4ccccc4)C3)no2)c1)C(Cl)Cl` (centres unmarked) [Compound 681]: the half-maximal inhibitory concentration (IC50) was < 10 µM.

On to `COc1cccc(C(=O)N2CCN(c3cccc(Cl)c3-c3cc(-c4cccc(NC(=O)C(Cl)Cl)c4)on3)CC2)c1` [Compound 659], for which the IC50 was < 10 µM.

For the molecule `CN(c1cccc(Cl)c1-c1cc(-c2cccc(NC(=O)C(Cl)Cl)c2)on1)C1CCNCC1` [Compound 581], the concentration for half-maximal inhibition (IC50) is < 10 µM.

As for `CC(=O)N1CCC(Oc2cccc(Cl)c2-c2cc(-c3cccc(NC(=O)C(Cl)Cl)c3)on2)C1` (centres unmarked) [Compound 595], the IC50 is < 10 µM.

For the molecule `O=C(NC1CCN(c2cccc(Cl)c2-c2cc(-c3cccc(NC(=O)C(Cl)Cl)c3)on2)CC1)c1ccccn1` [Compound 544], the IC50 was < 10 µM.

As for `CCNC(=O)NC1CCN(c2cccc(Cl)c2-c2cc(-c3cccc(NC(=O)C(Cl)Cl)c3)on2)C1` (centres unmarked) [Compound 575], the concentration for half-maximal inhibition (IC50) was < 10 µM.

For the molecule `O=C(Nc1cccc(-c2cc(-c3c(Cl)cccc3N3CCCN(c4ccccn4)CC3)no2)c1)C(Cl)Cl` [Compound 523], the IC50 was < 10 µM.

With `O=C(Nc1cccc(-c2cc(-c3c(Cl)cccc3N3CCN(Cc4ccccc4)CC3)no2)c1)C(Cl)Cl` [Compound 549], the IC50 was < 10 µM.

For the molecule `CS(=O)(=O)N1CCC(Oc2cccc(Cl)c2-c2cc(-c3cccc(NC(=O)C(Cl)Cl)c3)on2)CC1` [Compound 576], the IC50 is < 10 µM.

Turning to `O=C(Nc1cccc(-c2cc(-c3c(Cl)cccc3OCCC3CCN(C(=O)c4ccccn4)CC3)no2)c1)C(Cl)Cl` [Compound 646], the concentration for half-maximal inhibition (IC50) was < 10 µM.

With `CS(=O)(=O)N1CCC(Oc2cccc(Cl)c2-c2cc(-c3cccc(NC(=O)C(Cl)Cl)c3)on2)C1` (centres unmarked) [Compound 596], the concentration for half-maximal inhibition (IC50) is < 10 µM.

Take `O=C(Nc1cccc(-c2cc(-c3c(Cl)cccc3N3CCN(C(=O)c4ccco4)CC3)no2)c1)C(Cl)Cl` [Compound 519]: the IC50 is < 10 µM.

For `O=C(Nc1ccccc1)NC1CCN(c2cccc(Cl)c2-c2cc(-c3cccc(NC(=O)C(Cl)Cl)c3)on2)CC1` [Compound 548], the IC50 is < 10 µM.

Consider `CCN(CC)c1cccc(Cl)c1-c1cc(-c2cccc(NC(=O)C(Cl)Cl)c2)on1` [Compound 508], for which the 50% inhibitory concentration (IC50) was < 10 µM.

Turning to `[N-]=[N+]=Nc1cccc(Cl)c1-c1cc(-c2cccc(NC(=O)C(Cl)Cl)c2)on1` [Compound 512], the IC50 is < 10 µM.

On to `O=C(Nc1cccc(-c2cc(-c3c(Cl)cccc3-c3cccnc3)no2)c1)C(Cl)Cl` [Compound 685], for which the IC50 was < 10 µM.

On to `O=C(Nc1cccc(-c2cc(-c3c(F)cccc3N3CCN(c4ccccn4)CC3)no2)c1)C(Cl)Cl` [Compound 521], for which the IC50 was < 10 µM.

In the case of `O=C(Nc1cccc(-c2cc(-c3c(Cl)cccc3N3CCN(CC(=O)N4CCOCC4)CC3)no2)c1)C(Cl)Cl` [Compound 631], the IC50 is < 10 µM.

Take `O=C(Nc1cccc(-c2cc(-c3c(Cl)cccc3OC3CCNC3)no2)c1)C(Cl)Cl` (centres unmarked) [Compound 593]: the concentration for half-maximal inhibition (IC50) is < 10 µM.

For `COP(=O)(O)Oc1cccc(Cl)c1-c1cc(-c2cccc(NC(=O)C(Cl)Cl)c2)on1` [Compound 607], the IC50 was < 10 µM.

With `COC(=O)c1ccccc1-c1cc(-c2cccc(NC(=O)C(Cl)Cl)c2)on1` [Compound 115, 2,2-Dichloro-N-[3-[3-(2-carbomethoxy)phenyl-5-isoxazolyl]phenyl]Acetamide], the IC50 is < 10 µM.
